Values quoted from earlier work, collected in patent US20030008851A1, “Acne treatment including dual-package system” (priority 2001, published 2003).

What was measured:
[1] = not given; remark: listed apart in the source

pH of the solution produced (1 gram in about 460 ml of water at room temperature) | volume of water dissolving 1 gram (1 gram, water, room temperature) | solubility in water (water, room temperature) | volume of alcohol dissolving 1 gram ([1]; 1 gram) | SMILES | solubility in water (in words) (water) | solubility in alcohol (in words) [1]
– | – | – | – | O=C(OOC(=O)c1ccccc1)c1ccccc1 [Benzoyl peroxide] | sparingly soluble | sparingly soluble
2.4 | about 460 ml | about 0.2 % by weight | about 2.7 ml | O=C(O)c1ccccc1O [Salicylic acid] | sparingly soluble | –
